From patent US6291432A (Japan Energy Corporation, priority 1996, dated 2001) come the findings set out here.

Data set [1] is described as follows: Pharmacokinetics test (digestive tract absorption and metabolic characteristics) in rats. Format: in vivo. The conditions noted are these: 10 mg/kg; for F (biological utilization rate of administration in the duodenum): Id versus Iv; for MRT / T1/2 (λ): Iv; for T1/2 (λ): final phase half-life. Here is the method:
The metabolic characteristics of the tripeptide compound of the present invention were evaluated using rats for a test animal. As the Control Example, the result of KNI-272 ((R)-N-tert-butyl-3-{(2S,3S)-2-hydroxy-3-[N-(isoquinolin-5-yloxy)acetyl-me thylthio-L-alanyl]amino-4-phenylbutanoyl}-1,3-thiazolidine-4-carboxamide; iQoa-Mta-Apns-Thz-NHtBu) which is a tripeptide derivative known in the art, is also shown. The amount administred was 10 mg/kg. The evaluated administration methods are a method (id) of administering a solution of a fixed amount of the test compound in the duodenum of a test animal, and a method (iv) of administering the solution intravenously. After administration, blood samples were taken from the test animal and concentrations of the residual test compound in the plasma were analyzed. As indices concerning pharmacokinetics, AUC (area under medicine concentration curve in plasma), MRT (mean residence time), t1/2 (λ) (final phase half-life period), and the biological utilization rate of administration in the duodenum F were calculated.

The test system of another data set is CEM-SS cell. The data set can be described thus: Cytotoxicity in HIV virus non-infected CEM-SS cells (XTT method). Format: cell-based. The conditions noted are these: six days, highest concentration 1.0 μg/ml. Here is the method:
(§1) EP 0751145 A2). On a 96-well micro titre plate, the test compounds were added to the culture medium in various concentrations, then the HIV infected CEM-SS cell was added and incubated for six days at 37° C. using a CO2 incubator. The number of the living cells was then measured by a XTT method. On the other hand, in order to examine the cytotoxicity of the test compounds, the test compounds were added in various concentrations and the HIV virus non-infected cell was incubated under similar conditions. As the reference group, the HIV infected CEM-SS cell was incubated without the addition of the test compounds. Moreover, the HIV virus non-infected cell was incubated without the addition of the test compound as the control group. The anti-virus activity was evaluated in a concentration in which the cytotoxic effect caused by the HIV infected virus in the above HIV infected cell group was inhibited 50 percent (EC50, 50% effective concentration), and the cytotoxicity was evaluated in a concentration in which the cytotoxic effect by the addition of the test compound in the HIV virus non-infected cell group occurred at 50 percent (TC50, 50% cytotoxic concentration) respectively.

Data set [2] has as its system HIV virus strain HIV-1 IIIB. Briefly: Anti-HIV activity in HIV infected CEM-SS cells (XTT method). It counts as cell-based. The conditions noted are these: Human immunodeficiency virus 1, 144 h, HIV-1 IIIB infected CEM-SS cell, six days at 37° C. The protocol: as §1
Data set [3] has as its target T1, recombinant HIV-1 protease (Human immunodeficiency virus type 1 group M subtype B, UniProt P04585).
T1 construct: measured using a recombinant HIV-1 protease
Briefly: Evaluation of enzyme inhibition constant Ki. It counts as biochemical. The protocol: The synthesized peptide substrate having a sequence of H-Lys-Ala-Arg-Val-Tyr-Phe (4-NO2)-Glu-Ala-Nle-NH2 (SEQ ID NO. 1) was used in this experiment. The enzyme reaction was measured using a reversed phase HPLC by determining the C-terminal peptide fraction produced by cleavage just behind Tyr in the synthesized substrate which is obtained by reacting the following composition for 15 min. at 37° C. and stopping the reaction by the addition of 1N HCl (75 μl).
Composition of reaction mixture
Recombinant HIV-1 protease enzyme solution 10 μl
0.5 mM synthetic substrate aqueous solution 10 μl
DMSO Inhibitor solution 5 μl
0.2 M MES solution 25 μl
(1 M NaCl, 2 mM EDTA-2Na, 2 mM DTT, pH 5.5)
Column: Waters Nova-pak C18 (3.9×75 mm)
Eluent: A; water (0.1% TFA)
B; acetonitrile (0.1% TFA)
Flow rate: 2 ml/min isocratic; 10% B solution
Detection: Fluorescence 305 nm, excitation 275 nm

In data set [4] the target is T1, recombinant HIV-1 protease. The data set can be described thus: HIV protease inhibition activity (enzyme activity inhibition rate). Format: biochemical. The conditions noted are these: 50 nM final concentration of test compound; 60 min at 37° C.; read-out: Enzyme activity inhibition rate (%) (addition concentration of 50 nM). The protocol:
The protease activity was measured using a recombinant HIV-1 protease (see Biochemistry, 250 (9)-264 (1990)) and a synthesized peptide substrate. The inhibition rate was calculated by determining a peptide fragment generated by cleavage between Tyr-Pro of the synthesized substrate after the reaction of 60 min at 37° C. using a reversed phase HPLC in the presence of the test compounds in various concentrations (see, for example, Japanese Patent Application Laid-open No. 170722/1993).
Examples of the evaluation results of the HIV protease inhibition activity of the tripeptide compound of the present invention by the above-described method is shown in Table 1. […] The concentration of the test compounds in Table 1 represents the final concentration in the reaction mixture.

In general, AUC refers to the area under the concentration-time curve, a measure of exposure. A high value points to more exposure. By MRT is commonly meant the average time that molecules of a dose stay in the body. Broadly, the EC50 is the concentration giving half of the maximal effect. Higher therefore signals a less potent agent. In general, Ki refers to a dissociation constant, usually derived from enzyme kinetics or from competition with a known ligand.

Structures are written as SMILES. Values after ≈ are worked out from the molar mass of the structure shown.

The molecule `CC(C)[C@H](NC(=O)COc1cccc(N(C)C)c1)C(=O)N[C@@H](Cc1ccccc1)[C@H](O)C(=O)N1CSC(C)(C)[C@H]1C(=O)NC(C)(C)C` [Example 35, (R)-N-tert-butyl-3-{(2S,3S)-2-hydroxy-3-[(S)-2-(3-dimethylaminophenoxyacetyl)amino-3-methylbutanoyl]amino-4-phenylbutanoyl}-5,5-dimethyl-1,3-thiazolidine-4-carboxamide] showed an exposure (AUC) in data set [1] (Id (in the duodenum)) of 105 µg·min/mL. In addition, in data set [1], the “F (biological utilization rate of administration in the duodenum)” value is reported as 89%, the mean residence time (MRT) was 1.13 h and the “T1/2 (λ)” value was found to be 1.05 h. Also, in data set [1] (Iv (intravenous)), the AUC was 119 µg·min/mL. In addition, the “Cytotoxicity TC50” value with CEM-SS cell is more than 1.0 µg/mL. This molecule showed an EC50 in data set [2] of 0.01 µg/mL (≈ 0.0149 µM). For the same molecule, the inhibitory constant (Ki) in data set [3] worked out at 0.07 nM. In data set [4], the inhibition at 0.05 µM is 96%.
For the molecule `COC(=O)N[C@H](C(=O)N[C@@H](Cc1ccccc1)[C@H](O)C(=O)N1CSC(C)(C)[C@H]1C(=O)NCc1ccccc1C)C(C)C` [Example 27, (R)-N-(2-methylbenzyl)-3-{(2S,3S)-2-hydroxy-3-[(S)-2-(methoxycarbonyl)amino-3-methylbutanoyl]amino-4-phenylbutanoyl}-5,5-dimethyl-1,3-thiazolidine-4-c arboxamide], the area under the curve (AUC) in data set [1] (Id (in the duodenum)) is 87 µg·min/mL. In addition, in data set [1], the “F (biological utilization rate of administration in the duodenum)” value amounted to 32%, the mean residence time (MRT) is 1.18 h and the “T1/2 (λ)” value was found to be 1.45 h. The molecule also yielded an exposure (AUC) in data set [1] (Iv (intravenous)) of 272 µg·min/mL. The “Cytotoxicity TC50” value in the data set on CEM-SS cell is more than 1.0 µg/mL. Besides, a half-maximal response in data set [2] (EC50) required 0.026 µg/mL (≈ 0.0434 µM). Also, the inhibition at 0.05 µM in data set [4] came out at 94.9%.
Consider `CC[C@H](NC(=O)COc1cccc(N(C)C)c1)C(=O)N[C@@H](Cc1ccccc1)[C@H](O)C(=O)N1CSC(C)(C)[C@H]1C(=O)NC(C)(C)C` [Example 36, (R)-N-tert-butyl-3-{(2S,3S)-2-hydroxy-3-[(S)-2-(3-dimethylaminophenoxyacetyl)aminobutanoyl]amino-4-phenylbutanoyl}-5,5-dimethyl-1,3-thiazolidine-4-car boxamide], for which the AUC in data set [1] (Id (in the duodenum)) was determined as 185 µg·min/mL. Further, in data set [1], the “F (biological utilization rate of administration in the duodenum)” value was determined as 82%, the MRT is 2.07 h and the “T1/2 (λ)” value is 1.83 h. Besides, in data set [1] (Iv (intravenous)), the exposure (AUC) was found to be 226 µg·min/mL. The “Cytotoxicity TC50” value in the data set with CEM-SS cell is more than 1.0 µg/mL. In data set [2], this molecule registered an EC50 of 0.017 µg/mL (≈ 0.0259 µM). Also, in data set [4], the inhibition at 0.05 µM came out at 95%.
Turning to `COc1cccc2cc(C(=O)N[C@H](C(=O)N[C@@H](Cc3ccccc3)[C@H](O)C(=O)N3CSC(C)(C)[C@H]3C(=O)NCc3ccccc3C)C(C)C)oc12` [Example 16, (R)-N-(2-methylbenzyl)-3-{(2S,3S)-3-[N-(7-methoxybenzofuran-2-carbonyl)-L-valyl]amino-2-hydroxy-4-phenylbutanoyl}-5,5-dimethyl-1,3-thiazolidine-4-carb oxamide], the AUC in data set [1] (Id (in the duodenum)) came to 90 µg·min/mL. In data set [1], the “F (biological utilization rate of administration in the duodenum)” value was 27%, the mean residence time (MRT) turned out to be 1.12 h and the “T1/2 (λ)” value is 1.23 h. In addition, the area under the curve (AUC) in data set [1] (Iv (intravenous)) is 322 µg·min/mL. Moreover, in the data set on CEM-SS cell, the “Cytotoxicity TC50” value is more than 1.0 µg/mL. This molecule had a concentration for a half-maximal effect (EC50) in data set [2] of 0.0017 µg/mL (≈ 0.00238 µM). For the same molecule, in data set [3], the Ki is 0.014 nM. Besides, the inhibition at 0.05 µM in data set [4] is 97.1%.
Turning to `CC(C)c1nc(CN(C)C(=O)N[C@H](C(=O)N[C@@H](Cc2ccccc2)C[C@H](O)[C@H](Cc2ccccc2)NC(=O)OCc2cncs2)C(C)C)cs1` [Ritonavir, reference compound], the “Cytotoxicity TC50” value in the data set with CEM-SS cell was more than 1.0 µg/mL. The half-maximal effective concentration (EC50) in data set [2] is 0.033 µg/mL (≈ 0.0458 µM).
